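Cells were grown in 96-well plates and exposed to each compound for 48 hours at five concentrations; endpoints were interpolated linearly between bracketing concentrations, or set to the highest concentration if not reached. At the GI50, growth is halved.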 Calls of active or inactive are those of the source. Cut-off read from the data, not from the text of the source: active = GI50 up to about 1.1 µM and inactive = higher.
Columns and labels:
Assay in all cases: DTP human tumour cell line panel, 48 h
[1] = test system: A549
[2] = test system: ACHN
[3] = test system: CAKI-1
[4] = test system: DMS-273
[5] = test system: HCT-116
[6] = test system: HCT-15
[7] = test system: HOP-92
[8] = test system: NCI-H23
[9] = test system: OVCAR-5
[10] = test system: RPMI-8226
[11] = test system: SF-539
[12] = test system: TK-10
[13] = test system: UACC-257
[14] = test system: UACC-62
[15] = test system: UO-31

Row | Structure (SMILES) | GI50 [1] | GI50 [2] | GI50 [3] | GI50 [4] | GI50 [5] | GI50 [6] | GI50 [7] | GI50 [8] | GI50 [9] | GI50 [10] | GI50 [11] | GI50 [12] | GI50 [13] | GI50 [14] | GI50 [15]
1 | Cc1cc(C)c(/C=N/NS(=O)(=O)c2ccccc2)c(C)c1 | > 100 µM (inactive) | > 100 µM (inactive) | 76.6 µM (inactive) | > 100 µM (inactive) | > 100 µM (inactive) | > 100 µM | 36.3 µM (inactive) | 54.3 µM (inactive) | > 100 µM (inactive) | 54.5 µM (inactive) | 66.8 µM (inactive) | > 100 µM (inactive) | 68.7 µM (inactive) | > 100 µM (inactive) | 72.1 µM (inactive)
2 | COc1cc(=O)oc(/C=C/CO)c1C | > 100 µM (inactive) | > 100 µM (inactive) | > 100 µM (inactive) | > 100 µM (inactive) | > 100 µM (inactive) |  | > 100 µM (inactive) | > 100 µM (inactive) | > 100 µM (inactive) |  | > 100 µM (inactive) | > 100 µM (inactive) | > 100 µM (inactive) | > 100 µM (inactive) | > 100 µM (inactive)
3 | CN1C/C(=C\c2ccco2)c2nc(N)nc(-c3ccco3)c2C1 | > 100 µM (inactive) | > 100 µM (inactive) | > 100 µM (inactive) | 88.1 µM (inactive) | > 100 µM (inactive) | > 100 µM |  | > 100 µM (inactive) | > 100 µM (inactive) | 31.7 µM (inactive) | > 100 µM (inactive) | > 100 µM (inactive) | > 100 µM (inactive) | > 100 µM (inactive) | > 100 µM (inactive)
4 | O=S(O)CCCCSSCc1ccccc1CSSCCCCS(=O)O | 28.8 µM (inactive) | 18.7 µM (inactive) | 25.8 µM (inactive) | 21.1 µM (inactive) |  | 19.1 µM | 21.9 µM (inactive) | 18 µM (inactive) | 95.1 µM (inactive) | 10.8 µM (inactive) | 15.1 µM (inactive) | 43.4 µM (inactive) | 3.87 µM (inactive) | 10.5 µM (inactive) | 11.1 µM (inactive)
5 | C/C(=N/N)c1sc(-c2nc(C)c(/C(C)=N\N)s2)nc1C | > 100 µM (inactive) | > 100 µM (inactive) | > 100 µM (inactive) | > 41.3 µM (inactive) | > 100 µM (inactive) | > 43 µM | > 100 µM (inactive) | > 100 µM (inactive) | > 100 µM (inactive) | 35.7 µM (inactive) | > 100 µM (inactive) | > 100 µM (inactive) | > 100 µM (inactive) | > 92.7 µM (inactive) | > 100 µM (inactive)
6 | COc1ccc(C2Oc3cc(OC)c(O)c(C)c3[C@H]2C)cc1 (some centres undefined) | > 100 µM (inactive) | 54.2 µM (inactive) | > 100 µM (inactive) | 73.3 µM (inactive) | 35.6 µM (inactive) | 58.9 µM | > 100 µM (inactive) | 57.3 µM (inactive) | > 100 µM (inactive) | > 10 µM (inactive) | > 100 µM (inactive) | > 100 µM (inactive) | > 100 µM (inactive) | > 100 µM (inactive) | 17.1 µM (inactive)
7 | N#Cc1ccc(/C=N\N2C(=O)c3ccccc3C2=O)cc1 | > 100 µM (inactive) | > 100 µM (inactive) | > 100 µM (inactive) | > 100 µM (inactive) | > 100 µM (inactive) | > 100 µM | > 100 µM (inactive) | > 100 µM (inactive) | > 100 µM (inactive) | > 100 µM (inactive) | > 100 µM (inactive) | > 100 µM (inactive) | > 100 µM (inactive) | > 100 µM (inactive) | > 100 µM (inactive)
8 | COc1ccc2c(c1)C(=O)c1ccc(OC)cc1C2=S | > 100 µM (inactive) | > 100 µM (inactive) |  | > 100 µM (inactive) | > 100 µM (inactive) | > 100 µM | > 100 µM (inactive) | > 100 µM (inactive) | > 100 µM (inactive) | > 100 µM (inactive) | > 100 µM (inactive) | > 100 µM (inactive) | > 100 µM (inactive) | 49.1 µM (inactive) | > 100 µM (inactive)
9 | CCc1cccc(C)c1NS(=O)(=O)c1ccccc1 | > 100 µM (inactive) | > 100 µM (inactive) | > 100 µM (inactive) | > 100 µM (inactive) | > 100 µM (inactive) | > 100 µM |  | > 100 µM (inactive) | > 100 µM (inactive) | > 100 µM (inactive) | > 100 µM (inactive) | > 100 µM (inactive) | > 100 µM (inactive) | > 100 µM (inactive) | > 100 µM (inactive)
10 | CN(C)CN(C)c1nc(N(C)C)nc(N(C)C)n1 | > 100 µM (inactive) | > 100 µM (inactive) | > 100 µM (inactive) | > 100 µM (inactive) | > 100 µM (inactive) | > 100 µM | > 100 µM (inactive) | > 100 µM (inactive) | > 100 µM (inactive) | > 100 µM (inactive) | > 100 µM (inactive) | > 100 µM (inactive) | > 100 µM (inactive) | > 100 µM (inactive) | > 100 µM (inactive)

From ChEMBL document CHEMBL1201862, “PubChem BioAssay data set” (2004)
